doi:10.1101/139675v1, “Purification of the mammalian NgBR/hCIT cis-prenyltransferase complex: Identification of a conserved carboxyterminal RxG motif crucial for enzymatic activity” (biorxiv, 2017)

Target: T1, NgBR/hCIT complex (hcisPT) (Homo sapiens, UniProt Q86SQ9+Q96E22)
T1 construct: gene DHDDS; full-length; N-terminal Strep-tag on hCIT, internal 6-His tag after Gly31 of NgBR; bicistronic vector in Expi293F
T1 sequence (Q86SQ9 1-333): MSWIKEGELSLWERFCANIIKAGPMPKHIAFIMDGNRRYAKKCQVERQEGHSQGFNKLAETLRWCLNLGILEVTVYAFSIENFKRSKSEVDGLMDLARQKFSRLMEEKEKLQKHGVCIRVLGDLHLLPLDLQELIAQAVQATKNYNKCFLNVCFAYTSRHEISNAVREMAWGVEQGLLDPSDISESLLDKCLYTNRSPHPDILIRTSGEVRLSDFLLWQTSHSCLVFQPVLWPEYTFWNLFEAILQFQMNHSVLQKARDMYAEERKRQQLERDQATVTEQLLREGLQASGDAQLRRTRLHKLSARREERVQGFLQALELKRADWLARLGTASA
T1 sequence (Q96E22 1-293): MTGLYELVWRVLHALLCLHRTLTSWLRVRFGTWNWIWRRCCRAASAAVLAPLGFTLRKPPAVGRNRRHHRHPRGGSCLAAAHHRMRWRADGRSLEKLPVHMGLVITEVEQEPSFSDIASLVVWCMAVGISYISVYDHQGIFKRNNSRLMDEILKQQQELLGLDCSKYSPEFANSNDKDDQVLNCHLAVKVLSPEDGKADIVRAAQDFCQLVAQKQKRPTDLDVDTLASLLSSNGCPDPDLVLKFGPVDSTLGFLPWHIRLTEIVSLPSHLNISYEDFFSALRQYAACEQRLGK
Assay: […]-IPP incorporation, Michaelis-Menten fit
Type: biochemical
Conditions: 50 mM Tris-HCl pH 8, 1 mM MgCl2, 1% phosphatidylinositol, 37 C

Structure (SMILES): CC(C)=CCC/C(C)=C/CC/C(C)=C/COP(=O)(O)OP(=O)(O)O [FPP]
- Km (100 uM IPP, 0.1-50 uM FPP): steady state kinetic parameters were measured for complexes containing the WT subunits, hCIT/NgBR

Structure (SMILES): C=C(C)CCOP(=O)(O)OP(=O)(O)O [IPP]
- Km (50 uM FPP, 0.1-400 uM IPP, labelled compound): steady state kinetic parameters were measured for complexes containing the WT subunits, hCIT/NgBR
